From patent US20240307485A1, “WS635 USES THEREOF IN MEDICINE” (WATERSTONE PHARMACEUTICALS (WUHAN) CO., LTD., priority 2021, published 2024)
Entries after “also recorded” stand apart in the source; their conditions may differ.

Assays:
[1] = system: wound healing model of SD rats; assay: Skin wound healing model in SD rats (full-thickness circular skin wound, 2 cm diameter); assay type: in vivo; conditions: for wound area compared with the model group: once a day, WS635 oral 52.8 mg/kg, rb-bFGF external 262.5 IU/cm2, P<0.05, P<0.01; for wound healing rate over the administration cycle: once a day for 7 days, time course
Description: Eighteen 6-week-old male SD rats were randomly divided into 3 groups: model group, test article group and positive control group, with 6 rats in each group. Skin wound surgery was performed after anesthesia, and oral administration was started 2 h after skin wound formation. All rats were raised in a single cage. […]. The surgical details were as follows: All animals were anesthetized with 10% chloral hydrate solution (3 mL/kg) by intraperitoneal injection, their backs were depatured with pet shaving knives, and a circular mark with a diameter of 2 cm was made. After the skin was disinfected with alcohol, the full layer of skin was removed with surgical scissors along the marking line, and the wound surface was pressed to stop bleeding. The model group was orally given 10% DMSO corn oil, the test group was orally given WS635 (corn oil dissolved in 10% DMSO) at 52.8 mg/kg, and the positive control group was given 262.5 IU/cm2 (62.5 μL/cm^2) recombinant bovine basic fibroblast growth factor (rb-bFGF) external solution, once a day for 7 days. Digital photos were taken of the wound of each rat under the same conditions. The wound was recorded with plastic transparent paper, and the wound area was scanned by image J software after the wound was recorded with plastic transparent paper. Wound healing rate was calculated according to wound area (%)=(area after administration−area before administration)/area before administration 100%.

[2] = Toxicity test of repeated oral administration for 9 days in rats; conditions: rat, in vivo, read-out: NOAEL (No Observed Adverse Effect Level) dose
angiogenesis = assay: Angiogenesis in rats; assay type: in vivo

Compound	wound area compared with the model group ([1]; Day 3)	wound area compared with the model group ([1]; Day 7)	wound healing effect of WS635 compared with rb-bFGF ([1]; WS635 oral 52.8 mg/kg vs rb-bFGF 262.5 IU/cm2, P>0.05, 52.8 mg/kg)	wound healing rate over the administration cycle [1]	wound healing (overall conclusion) ([1]; oral administration, SD rats)	NOAEL at 9 days [2] [mg/kg/day]	angiogenesis (angiogenesis)
C/C=C/C[C@@H](C)[C@@H](O)[C@H]1C(=O)N[C@@H](CC)C(=O)N(C)[C@H](SCCN(C)C)C(=O)N(C)[C@@H](CC(C)(C)O)C(=O)N[C@@H](C(C)C)C(=O)N(C)[C@@H](CC(C)C)C(=O)N[C@@H](C)C(=O)N[C@H](C)C(=O)N(C)[C@@H](CC(C)C)C(=O)N(C)[C@@H](CC(C)C)C(=O)N(C)[C@@H](C(C)C)C(=O)N1C [WS635, (3S,6S,9S,12R,15S,18S,21S,24S,27R,30S,33S)-27-((2-(dimethylamino)ethyl)thio)-30-ethyl-3 3-((1R,2R,E)-1-hydroxy-2-methylhex-4-en-1-yl)-24-(2-hydroxy-2-methylpropyl)-6,9,18-triisobutyl-3,21-diisopropyl-1,4,7,10,12,15,19,25,28-nonamethyl-1,4,7,10,13,16,19,22,25,28,31-undecaazacyclotritriacontan-2,5,8,11,14,17,20,23,26,29,32-undecaone]	decreased significantly	decreased significantly	equivalent to rb-bFGF; also recorded: no significant difference	enhances wound healing rate in a time-dependent manner; also recorded: increased with the extension of administration time	significantly promote wound healing	80	significantly promote angiogenesis
rb-bFGF: recombinant bovine basic fibroblast growth factor (rb-bFGF) external solution, positive control	decreased significantly	decreased significantly		increased with the extension of administration time			
